Data taken from US20200215204A1, “EARLY-ONSET PARKINSON'S DISEASE MODEL: (D331Y) PLA2G6 KNOCKIN MODEL, PLATFORM AND METHOD FOR DRUG SCREENING, AND KIT OF DETECTION” (Chang Gung Memorial Hospital, Linkou, priority 2019, published 2020).

Key:
[1] = test system: PLA2G6^D331Y/D331Y knockin mice; test: Locomotor activity in open field boxes after L-DOPA in homozygous (D331Y) PLA2G6 knockin mice; type: in vivo; conditions: about 1.5 mg/kg; homozygous PLA2G6^D331Y/D331Y knockin mouse at about 9 months old
Experimental: Behavioral Assessments The locomotor activity of WT or (D331Y) PLA2G6 KI mice were evaluated in open field boxes for 60 minutes. Movements of animal were recorded and assessed with the TopScan video tracking system (Clever Sys., Inc.). The locomotor activity of mouse was examined by measuring the velocity and distance. To evaluate the therapeutic benefit of L-DOPA in PLA2G6^D331Y/D331Y mice, benserazide (0.5 mg/kg) and L-DOPA (1.5 mg/kg) were intraperitoneally administered into animal. The locomotor activity was recorded 40 min after the injection.

[2] = test system: MPTP-induced mice model of PD; conditions: 25 mg/kg for 21 days; MPTP-induced mice model of PD (Zhao T. T. et al.); cited from earlier work
[3] = test system: PD patients carrying PLA2G6 mutations; conditions: cited from earlier work

N[C@@H](Cc1ccc(O)c(O)c1)C(=O)O [L-DOPA]
symptoms of motor deficit [1]: significantly improve symptoms of said motor deficit | therapeutic effect [2]: significant therapeutic effect | effectiveness in treating patients [3]: effective
